{"source": "patent US6030961A", "about": "“Oxyalkylene phosphate compounds and uses thereof” (Bar-Ilan Research & Development Co., Ltd., priority 1997, dated 2000)", "key": {"human tumor cell lines": {"tested_on": "human tumor cell lines", "experiment": "Clonogenicity of established tumor cell lines, summary over cell lines", "quoted_text": "(§1) The cell lines listed in Table 2 were grown to 70-80% confluence in complete medium (RPMI 1640 containing 10% fetal calf serum (FCS), 100 IU penicillin, 100 μg/mL streptomycin and 2 mM L-glutamine). Cells were harvested, washed in complete medium and counted. Cell viability was determined by trypan blue exclusion. The cells were placed into soft agar (0.12% in media) and plated at 5,000 viable cells per well onto an agarose underlayer (0.4%) in 24-well plates. After overnight culture, AB or BODP was added at the indicated concentration. Control cells received media alone. As a control for cell death, cells were treated with a superlethal dose of 10 μg/ml of cisplatin. The dosage of AB or BODP which inhibited fifty percent or ninety percent of cell proliferation (IC50 or IC90 respectively) was calculated using the Chou Analysis' Median Effective Dose equation.\n(§2) Clonogenicity is determined as the percentage of clones in treated cultures relative to clones in mediumun-treated control cultures."}, "K562 cells [1]": {"tested_on": "K562 cells", "experiment": "Hb-containing K562 cells by benzidine staining", "assay_type": "cell-based", "settings": "for extent of differentiation, dose dependence: hemoglobin accumulation, K562"}, "[2]": {"tested_on": "pancreatic cell line, BxPC-3", "experiment": "Colony-forming assay, 24 hour exposure", "assay_type": "cell-based, human", "settings": "24 hour treatment", "quoted_text": "The effect of 24 hour exposure to BODP or AB was determined by a colony-forming assay on the pancreatic cell line, BxPC-3, which is a primary adenocarcinoma (ACTTnr:CRL-1687). Freshly trypsinized cells were plated at 500 cells/dish in 60 mm^2 tissue culture dishes with the indicated concentration of each compound and incubated for 24 hours at 37° C. in 5% CO2 /air atmosphere. The cultures were washed with PBS, fresh medium was added, and the cultures were incubated for 7-12 days to allow the formation of colonies. Colonies were fixed with methanol, stained with Giemsa and counted. All incubations were performed in triplicate."}, "SMS-KCN [3]": {"tested_on": "SMS-KCN", "experiment": "cells", "settings": "Homo sapiens", "quoted_text": "as §1, §2"}, "NGP": {"tested_on": "NGP", "experiment": "Clonogenicity (soft agar) of established tumor cell lines, NGP", "quoted_text": "as §1, §2"}, "[4]": {"tested_on": "β-thalassemia and sickle-cell anemia patients", "settings": "cited from earlier work"}, "[5]": {"tested_on": "reporter gene in primary and immortalized cell lines", "settings": "cited from earlier work"}, "[6]": {"tested_on": "HL-60 promyelocytic leukemia", "settings": "cited from earlier work"}, "neoplastic cells": {"tested_on": "neoplastic cells", "settings": "in vitro; cited from earlier work"}, "[7]": {"tested_on": "expression of transfected DNA", "settings": "cited from earlier work"}, "nuclear deacetylase(s)": {"tested_on": "nuclear deacetylase(s)", "settings": "cited from earlier work"}, "[8]": {"settings": "cited from earlier work"}, "cancer patients": {"tested_on": "cancer patients", "settings": "cited from earlier work"}, "B16 melanoma": {"tested_on": "B16 melanoma", "settings": "cited from earlier work"}, "[9]": {"settings": "U.S. Pat. No. 5,200,553; Nudelman et al.; cited from earlier work"}, "[10]": {"tested_on": "human colon carcinoma, leukemia and retinoblastoma cell lines", "settings": "in vitro; cited from earlier work"}, "K562 cells [11]": {"tested_on": "K562 cells", "experiment": "Total Hb content of K562 cultures by HPLC", "assay_type": "cell-based", "settings": "molar basis vs AB; FIG. 5", "procedure": "(2) Quantitative measurement of fetal hemoglobin (HbF) in K562 culture or human erythroid cultures was determined by ion-exchange high pressure liquid chromatography (HPLC) as described by Fibach et al., Blood 81:1630-1635, 1993.\nK562 cells: K562 is an erythroblast cell line (obtained from the ATCC, Rockville, Md.) that develops some properties of erythroid, megakaryocyte or monocyte cells, depending on the specific stimulus, when induced by different chemicals. K562 cells were grown in RPMI medium with 10% FCS, supplemented with 2 mM glutamine. Cells were incubated at 37° C. in a humidified, 5% CO2 incubator."}, "IMR-32": {"tested_on": "IMR-32", "experiment": "Clonogenicity (soft agar) of established tumor cell lines, IMR-32", "quoted_text": "as §1, §2"}, "SK-N-SH": {"tested_on": "SK-N-SH", "experiment": "Clonogenicity (soft agar) of established tumor cell lines, SK-N-SH", "quoted_text": "as §1, §2"}, "LA1-5S": {"tested_on": "LA1-5S", "experiment": "Clonogenicity (soft agar) of established tumor cell lines, LA1-5S", "quoted_text": "as §1, §2"}, "SK-N-MC": {"tested_on": "SK-N-MC", "experiment": "Clonogenicity (soft agar) of established tumor cell lines, SK-N-MC", "quoted_text": "as §1, §2"}, "SMS-KAN": {"tested_on": "SMS-KAN", "experiment": "Clonogenicity (soft agar) of established tumor cell lines, SMS-KAN", "quoted_text": "as §1, §2"}, "NBAS-5": {"tested_on": "NBAS-5", "experiment": "Clonogenicity (soft agar) of established tumor cell lines, NBAS-5", "quoted_text": "as §1, §2"}, "SMS-KCN [12]": {"tested_on": "SMS-KCN", "quoted_text": "as §1, §2"}, "NBL-W-N": {"tested_on": "NBL-W-N", "experiment": "Clonogenicity (soft agar) of established tumor cell lines, NBL-W-N", "quoted_text": "as §1, §2"}}, "note": "pIC50: −log10 of the molar value. Entries after “also recorded” stand apart in the source; their conditions may differ. Read-outs that look alike come from different tables or passages of the source."}
{"smiles": "CCCC(=O)O", "note": "[AB, arginine butyrate, reference compound]", "values": [{"measurement": "increase in CD11b at the same concentration", "setting": "HL-60 cells; 40 μM", "value": "no increase in CD11b"}, {"measurement": "expression of CD11b", "setting": "HL-60 cells; 800 μM", "value": 12, "unit": "%"}, {"measurement": "inhibition of cell proliferation, dose dependence", "setting": "human tumor cell lines", "value": "inhibit cell proliferation in a dose-dependent manner"}, {"measurement": "extent of differentiation, dose dependence", "setting": "K562 cells [1]", "value": "directly related to the drug dose"}, {"measurement": "growth inhibition at 100 μM", "setting": "[2]; 100 μM", "value": "did not cause complete growth inhibition"}, {"measurement": "pIC50", "setting": "SMS-KCN [3]", "value": 2.73}, {"measurement": "pIC50", "setting": "NGP; Homo sapiens", "value": 3.71}, {"measurement": "IC90", "setting": "NGP; Homo sapiens", "value": 1620, "unit": "µM"}, {"measurement": "clinical efficacy", "setting": "[4]; clinical trials", "value": "moderate efficacy"}, {"measurement": "side effects", "setting": "[4]; β-thalassemia and sickle-cell anemia patients", "value": "hypokalemia, headache, nausea and vomiting"}]}
{"smiles": "CCCC(=O)OCC(COC(=O)CCC)OC(=O)CCC", "note": "[Tributyrin]", "values": [{"measurement": "expression of a reporter gene", "setting": "[5]", "value": "enhance the expression of a reporter gene"}]}
{"smiles": "CCCC(=O)O", "note": "[BA, Butyric acid]", "values": [{"measurement": "expression of c-myc", "setting": "[6]", "value": "decrease"}, {"measurement": "differentiating and antiproliferative activity", "setting": "neoplastic cells", "value": "potent differentiating and antiproliferative agent"}, {"measurement": "expression of transfected DNA", "setting": "[7]", "value": "increase the expression of transfected DNA"}, {"measurement": "effect on nuclear deacetylase(s) and histone acetylation", "setting": "nuclear deacetylase(s)", "value": "inhibition of nuclear deacetylase(s), resulting in hyperacetylation of histones H3 and H4"}, {"measurement": "half-life in vivo", "setting": "[8]", "value": "very short half-lives in vivo"}, {"measurement": "metabolism", "setting": "[8]; in vivo", "value": "metabolized rapidly"}, {"measurement": "clinical efficacy in cancer patients", "setting": "cancer patients; BA and BA salts", "value": "minimal or transient efficacy"}, {"measurement": "odor in patients", "setting": "cancer patients; patients receiving BA", "value": "unpleasant odor"}, {"measurement": "expression of c-myc and H-ras oncogenes", "setting": "B16 melanoma", "value": "decrease in the expression of c-myc and H-ras oncogenes"}]}
{"smiles": "CCCC(=O)OCOC(=O)C(C)(C)C", "note": "[AN-9, pivaloyloxymethyl butyrate]", "values": [{"measurement": "activity among butyric acid prodrugs", "setting": "[9]", "value": "most active"}]}
{"smiles": "CCCC(=O)[O-].[Na+]", "note": "[SB, sodium butyrate]", "values": [{"measurement": "apoptosis", "setting": "[10]", "value": "produce apoptosis in vitro"}]}
{"smiles": "CCCC(=O)OCOP(=O)(OCC)OCC", "note": "[BODP, butyroyloxymethyl diethyl phosphate]", "values": [{"measurement": "increase of CD11b expression over untreated cells", "setting": "HL-60 cells; 40 μM, four days, 5760 min", "value": 7, "unit": "fold"}, {"measurement": "differentiation induction, in words", "setting": "HL-60 cells; BODP vs AB", "value": "more active differentiation inducer compared to AB"}, {"measurement": "total Hb content of the cultures", "setting": "K562 cells [11]", "value": "higher activity in inducing erythroid differentiation"}, {"measurement": "pIC50", "setting": "IMR-32", "value": 4.46}, {"measurement": "IC90", "setting": "IMR-32", "value": 88, "unit": "µM"}, {"measurement": "Ratio AB/BODP IC50", "setting": "IMR-32", "value": 25.2}, {"measurement": "Ratio AB/BODP IC90", "setting": "IMR-32", "value": 40.5}, {"measurement": "inhibition of cell proliferation, dose dependence", "setting": "human tumor cell lines", "value": "inhibit cell proliferation in a dose-dependent manner"}, {"measurement": "growth inhibition / clonogenicity inhibition potency, in words", "setting": "human tumor cell lines; BODP vs AB", "value": "more potent growth inhibitor than AB; also recorded: significantly more potent tumor cell clonogenicity inhibitor than AB"}, {"measurement": "sensitivity of the cells to BODP compared with AB", "setting": "human tumor cell lines; BODP vs AB", "value": "at least an order of magnitude more sensitive"}, {"measurement": "ratio of IC50 AB:IC50 BODP, median value", "setting": "human tumor cell lines; median over cell lines", "value": 25.2}, {"measurement": "ratio of IC90 AB:IC90 BODP, median value", "setting": "human tumor cell lines; median over cell lines", "value": 28.75}, {"measurement": "extent of differentiation, dose dependence", "setting": "K562 cells [1]", "value": "directly related to the drug dose"}, {"measurement": "proportion of Hb-containing cells per total cell population", "setting": "K562 cells [1]; molar basis vs AB, 5 days exposure, FIG. 4", "value": "higher proportion of Hb-containing cells"}, {"measurement": "pIC50", "setting": "SK-N-SH", "value": 4.82}, {"measurement": "IC90", "setting": "SK-N-SH", "value": 44, "unit": "µM"}, {"measurement": "Ratio AB/BODP IC50", "setting": "SK-N-SH", "value": 66.5}, {"measurement": "Ratio AB/BODP IC90", "setting": "SK-N-SH", "value": 77.2}, {"measurement": "pIC50", "setting": "LA1-5S", "value": 4.42}, {"measurement": "IC90", "setting": "LA1-5S", "value": 105, "unit": "µM"}, {"measurement": "Ratio AB/BODP IC50", "setting": "LA1-5S", "value": 42.8}, {"measurement": "Ratio AB/BODP IC90", "setting": "LA1-5S", "value": 25.5}, {"measurement": "concentration causing complete inhibition", "setting": "[2]", "value": "above 50 μM"}, {"measurement": "growth inhibition, dose dependence", "setting": "[2]", "value": "dose-ependent growth inhibition"}, {"measurement": "pIC50", "setting": "NGP", "value": 4.77}, {"measurement": "IC90", "setting": "NGP", "value": 49, "unit": "µM"}, {"measurement": "Ratio AB/BODP IC50", "setting": "NGP", "value": 11.6}, {"measurement": "Ratio AB/BODP IC90", "setting": "NGP", "value": 33.1}, {"measurement": "pIC50", "setting": "SK-N-MC", "value": 4.43}, {"measurement": "IC90", "setting": "SK-N-MC", "value": 145, "unit": "µM"}, {"measurement": "Ratio AB/BODP IC50", "setting": "SK-N-MC", "value": 5.8}, {"measurement": "Ratio AB/BODP IC90", "setting": "SK-N-MC", "value": 9.1}, {"measurement": "pIC50", "setting": "SMS-KAN", "value": 4.35}, {"measurement": "IC90", "setting": "SMS-KAN", "value": 128, "unit": "µM"}, {"measurement": "Ratio AB/BODP IC50", "setting": "SMS-KAN", "value": 25.3}, {"measurement": "Ratio AB/BODP IC90", "setting": "SMS-KAN", "value": 16.2}, {"measurement": "pIC50", "setting": "NBAS-5", "value": 4.68}, {"measurement": "IC90", "setting": "NBAS-5", "value": 71, "unit": "µM"}, {"measurement": "Ratio AB/BODP IC50", "setting": "NBAS-5", "value": 42}, {"measurement": "Ratio AB/BODP IC90", "setting": "NBAS-5", "value": 183.5}, {"measurement": "pIC50", "setting": "SMS-KCN [12]", "value": 4.27}, {"measurement": "Ratio AB/BODP IC50", "setting": "SMS-KCN [12]", "value": 34.7}, {"measurement": "pIC50", "setting": "NBL-W-N", "value": 4.42}, {"measurement": "IC90", "setting": "NBL-W-N", "value": 96, "unit": "µM"}, {"measurement": "Ratio AB/BODP IC50", "setting": "NBL-W-N", "value": 12.9}, {"measurement": "Ratio AB/BODP IC90", "setting": "NBL-W-N", "value": 32}]}
